# Ends that are not written are not given here.
# Experiments:
# [1] = tested on: MEC-1 cell line; assay type: cell-based, human
# Method: (§1) PBMCs (2×10^6 cells/sample) from CLL patients and healthy donors were treated with various concentrations of the peptide Antp-LP4-trp for 90 minutes. Cells were then gently washed once with PBS and stained with propidium iodide (PI) by adding 2.5 μl (1 mg/ml) and immediately analyzed for cell death. The level of cell death, reflected by the percentage of PI-positive cells, was determined by a flow cytometry analysis.
# (§2) Preipheral blood mononuclear cells (PMBC) isolated from pateints having chronic lymphocytic leukemia (CLL) and MEC-1 cell lines (human chronic B-cell leukemia) were incubated for 90 min with Peptide N-ANTP (SEQ ID NO:73) at concentrations of 10-40 μM. Cell death was measured by PI staning and FACS analysis.
# [2] = tested on: U937, MOLT4 and MEC-1 cells; assay: Cancer cell death by L- or D-amino acid peptide; assay type: cell-based, human; settings: average of two experiments
# Text: The results are average of two experiments
# [3] = tested on: HeLa
# Method: (§3) To determine apoptosis, cells were subjected to staining with 100 μg/ml acridine orange (AcOr) and 100 μg/ml ethidium bromide (EtBr) in PBS. Cells were centrifuged at 1500×g for 5 min at room temperature and resuspended in 25 μl complete medium, to which 2 μl of an AcOr/EtBr solution were added. The cells were then visualized by fluorescence microscopy (Olympus IX51) and images were recorded with an Olympus DP70 camera, using a SWB filter. In each independent experiment, in which early and late apoptotic cells were counted, approximately 250 cells were counted for each treatment.
# The effect of the peptides N-ANTP (having the amino acid sequence of SEQ ID NO:73) and ANTP-LP4-trp (having the amino acid sequence of SEQ ID NO:15) on apoptotoc cell death was examined with cancer cells of various trypes.
# (§4) All cells were grown in DMEM accept PC3, D-U145, Molt-4, Jurkat, Mec-1, U937 grown in RPMI medium and HUH7 grown in F12/DMEM medium.
# [4] = tested on: T-Rex; assay type: cell-based, human
# Method: as §3
# (§5) The effect of the peptides N-ANTP (having the amino acid sequence of SEQ ID NO:73) and ANTP-LP4-trp (having the amino acid sequence of SEQ ID NO:15) on apoptotoc cell death was examined with cancer cells of various trypes. Table 6 below summarizes the cell line examined and concentration of each pepetide that gave 50% apoptotic cell death (IC50, μM).
# as §4
# [5] = tested on: U87; assay type: cell-based, human
# Method: as §3, §5, §4
# [6] = tested on: U937; assay type: cell-based, human
# Method: as §3, §5, §4
# [7] = tested on: Mec-1; assay type: cell-based, human
# Method: as §3, §5, §4
# [8] = tested on: MOLT-4; assay type: cell-based, human
# Method: as §3, §5, §4
# [9] = tested on: Panc-1; assay type: cell-based, human
# Method: as §3, §5, §4
# [10] = tested on: MDA-MB-231; assay type: cell-based
# Method: as §3, §5, §4
# [11] = tested on: A375; assay type: cell-based
# Method: as §3, §5, §4
# [12] = tested on: K562; assay type: cell-based
# Method: as §3, §5, §4
# [13] = tested on: MCF7; assay type: cell-based
# Method: as §3, §5, §4
# [14] = tested on: HUH7; assay type: cell-based
# Method: as §3, §5, §4
# [15] = tested on: THP-1; assay type: cell-based
# Method: as §3, §5, §4
# [16] = tested on: A549; assay type: cell-based
# Method: as §3, §5, §4
# [17] = tested on: T3M4; assay type: cell-based
# Method: as §3, §5, §4
# [18] = tested on: JURKAT; assay type: cell-based
# Method: as §3, §5, §4
# [19] = tested on: H358; assay type: cell-based
# Method: as §3, §5, §4
# [20] = tested on: AsPC1; assay type: cell-based
# Method: as §3, §5, §4
# [21] = tested on: Hep-G2; assay type: cell-based
# Method: as §3, §5, §4
# [22] = tested on: SKOV-3; assay type: cell-based
# Method: as §3, §5, §4
# [23] = tested on: PBMCs isolated from CLL patients; assay type: cell-based, human
# Method: Peripheral blood mononuclear cells (PBMCs) were isolated from venous blood of patients with chronic lymphocytic leukemia (CLL) by Ficoll-Paque PLUS (GE Healthcare, Israel) density gradient centrifugation. After informed consent, venous blood (10 ml) was drawn from CLL patients satisfying diagnostic criteria for CLL or from normal adult donors. Blood was collected into heparin tubes and diluted 1:1 with balance solution (composed of two stock solutions, A and B, in 1:9 ratio, respectively. Solution A contained: D-glucose 1%, CaCl2 5×10^−5M, MgCl2 9.8×10^−4M, KCl 5.4×10^−3M, Tris 0.145M, pH 7.6. Solution B contained NaCl 0.14M. The balance solution was prepared freshly every week. The diluted blood sample was subsequently carefully layered on Ficoll-Paque Plus (10 ml of diluted blood: 15 ml Ficoll) in 50 ml conical tubes. Tubes were centrifuged at 400×g (with minimal acceleration and deceleration) for 40 minutes at 18-20° C. The mononuclear cells fine layer was transferred to a new centrifuge tube. Cells were washed 3 times with balance solution and re-suspended in a culture medium appropriate to the application.
# as §1, §2
# In ex vivo experiments, peripheral blood mononuclear cells (PBMCs) isolated from healthy individuals or CLL patients were incubated for 90 min with the indicated concentration of the ANTP-LP4-trp peptide. Cell death was assayed by PI staining and FACS analysis (healthy donors, n=34; CLL donors, n=39).
# [24] = tested on: PBMCs isolated from healthy donors; assay: Cell death, PI staining and FACS; assay type: cell-based, human; settings: 90 min, n=34
# Method: Peripheral blood mononuclear cells (PBMCs) were isolated from venous blood of patients with chronic lymphocytic leukemia (CLL) by Ficoll-Paque PLUS (GE Healthcare, Israel) density gradient centrifugation. After informed consent, venous blood (10 ml) was drawn from CLL patients satisfying diagnostic criteria for CLL or from normal adult donors. […]
# PBMCs (2×10^6 cells/sample) from CLL patients and healthy donors were treated with various concentrations of the peptide Antp-LP4-trp for 90 minutes. Cells were then gently washed once with PBS and stained with propidium iodide (PI) by adding 2.5 μl (1 mg/ml) and immediately analyzed for cell death. The level of cell death, reflected by the percentage of PI-positive cells, was determined by a flow cytometry analysis. […]
# [25] = tested on: PC-3; assay: Apoptosis induction by peptides, IC50; assay type: cell-based; settings: PC-3, Prostate adenocarcinoma, Mut-P53, Androg↑
# Method: as §3, §5, §4
# [26] = tested on: PBMCs; assay type: cell-based, human
# Method: as §3, §5, §4
# [27] = assay type: physicochemical
# Method: The peptides N-ANTP (C-terminus), ANTP-LP4-trp, TAT-LP4-trp and Tf-LP4-trp were synthesized by GL Biochem (Shanghai, China). The N-terminal peptide was water-soluble, while the other peptides were dissolved in DMSO. The concentration of DMSO in control and peptide-containing samples was up to 4%.
Molecule,IC50 [1],IC50 [3],IC50 [4],IC50 [5],IC50 [6],IC50 [7],IC50 [8],IC50 [9],IC50 [10],IC50 [11],IC50 [12],IC50 [13],IC50 [14],IC50 [15],IC50 [16],IC50 [17],IC50 [18],IC50 [19],IC50 [20],IC50 [21],other results
CC[C@H](C)[C@H](NC(=O)[C@H](CCCCN)NC(=O)[C@@H](NC(=O)[C@H](CCC(N)=O)NC(=O)[C@H](CCCNC(=N)N)NC(=O)[C@@H](N)CCSC)[C@@H](C)CC)C(=O)N[C@@H](Cc1c[nH]c2ccccc12)C(=O)N[C@@H](Cc1ccccc1)C(=O)N[C@@H](CCC(N)=O)C(=O)N[C@@H](CC(N)=O)C(=O)N[C@@H](CCCNC(=N)N)C(=O)N[C@@H](CCCNC(=N)N)C(=O)N[C@@H](CCSC)C(=O)N[C@@H](CCCCN)C(=O)N[C@@H](Cc1c[nH]c2ccccc12)C(=O)N[C@@H](CCCCN)C(=O)N[C@@H](CCCCN)C(=O)N[C@@H](CO)C(=O)N[C@@H](Cc1c[nH]c2ccccc12)C(=O)N[C@H](C(=O)N[C@@H](Cc1c[nH]c2ccccc12)C(=O)N[C@@H](CCC(=O)O)C(=O)N[C@@H](CCCCN)C(=O)N[C@@H](CCCCN)C(=O)N[C@@H](CC(C)C)C(=O)N[C@@H](CCC(=O)O)C(=O)N[C@H](C(=O)N[C@@H](C)C(=O)N[C@H](C(=O)N[C@@H](CC(N)=O)C(=O)N[C@@H](CC(C)C)C(=O)N[C@@H](C)C(=O)N[C@@H](Cc1c[nH]c2ccccc12)C(=O)N[C@H](C(=O)N[C@@H](C)C(=O)NCC(=O)N[C@@H](CC(N)=O)C(=O)N[C@@H](CO)C(=O)N[C@@H](CC(N)=O)C(=O)N[C@@H](CCCCN)C(=O)N[C@@H](Cc1c[nH]c2ccccc12)C(=O)N[C@H](C(=O)N[C@@H](Cc1c[nH]c2ccccc12)C(=O)N[C@@H](CCCCN)C(=O)O)[C@@H](C)O)[C@@H](C)O)C(C)C)[C@@H](C)O)[C@@H](C)O [ANTP-LP4-trp],< 2 µM,0.9 ± 0.03 µM,6.5 ± 0.9 µM,1.4 ± 0.5 µM,0.28 ± 0.1 µM,0.53 ± 0.1 µM,0.76 ± 0.2 µM,6.4 ± 0.6 µM,1.6 ± 0.6 µM,6.4 ± 0.6 µM,0.26 ± 0.1 µM,1.9 ± 0.04 µM,0.6 ± 0.3 µM,0.3 ± 0.1 µM,1.5 ± 0.2 µM,0.5 ± 0.2 µM,0.23 ± 0.1 µM,1.5 ± 0.5 µM,2.7 ± 1.7 µM,1.6 ± 0.6 µM,"cell-death induction, L- versus D-amino acid peptide [2]: irrespective to the D/L configuration; IC50 [22]: 1 ± 0.2 µM; IC50 [23]: 0.2 to 0.25 µM; correlation between relative amount of cancer cells (CD19+/CD5+) and peptide-induced cell death ([23]; 0.375 μM): tight correlation; cell death of CLL-derived PBMCs ([23]; 90 min, CLL donors, n=39): highly effective in inducing cancer cell death; effect on PBMCs isolated from healthy donors [24]: marginal"
MAVPPTYADLGKSARDVFTKGYGFGLMRQIKIWFQNRRMKWKK [N-ANTP],3 to 4 µM,2.7 ± 0.8 µM,5.6 ± 0.9 µM,1.4 ± 0.6 µM,0.58 ± 0.2 µM,0.93 ± 0.1 µM,1.1 ± 0.3 µM,6.2 ± 0.6 µM,1.5 ± 0.3 µM,2.8 ± 0.4 µM,0.6 ± 0.4 µM,2.5 ± 0.6 µM,1.3 ± 0.3 µM,0.53 ± 0.03 µM,2.7 ± 0.5 µM,1.3 ± 0.4 µM,0.35 ± 0.5 µM,2.7 ± 0.2 µM,6.1 ± 0.1 µM,3.6 ± 1.3 µM,IC50 [25]: 0.4 ± 0.1 µM; IC50 [26]: 10.1 ± 1.2 µM; IC50 [22]: 2 ± 0.8 µM; IC50 [23]: 3 to 4 µM; solubility [27]: water-soluble
